Test results as given in ChEMBL document CHEMBL4020713, “Identification of novel 2-(benzo[d]isoxazol-3-yl)-2-oxo-N-phenylacetohydrazonoyl cyanide analoguesas potent EPAC antagonists” (Eur J Med Chem, 2017).

Assays:
[1] = target: T1, Rap guanine nucleotide exchange factor 4 (Mus musculus, UniProt Q9EQZ6); test: Antagonist activity at mouse EPAC2 assessed as inhibition of EPAC2-mediated Rap1B (1 to 167 residues)-BODIPY GDP nucleotide exchange activity
T1 sequence (Q9EQZ6 whole entry): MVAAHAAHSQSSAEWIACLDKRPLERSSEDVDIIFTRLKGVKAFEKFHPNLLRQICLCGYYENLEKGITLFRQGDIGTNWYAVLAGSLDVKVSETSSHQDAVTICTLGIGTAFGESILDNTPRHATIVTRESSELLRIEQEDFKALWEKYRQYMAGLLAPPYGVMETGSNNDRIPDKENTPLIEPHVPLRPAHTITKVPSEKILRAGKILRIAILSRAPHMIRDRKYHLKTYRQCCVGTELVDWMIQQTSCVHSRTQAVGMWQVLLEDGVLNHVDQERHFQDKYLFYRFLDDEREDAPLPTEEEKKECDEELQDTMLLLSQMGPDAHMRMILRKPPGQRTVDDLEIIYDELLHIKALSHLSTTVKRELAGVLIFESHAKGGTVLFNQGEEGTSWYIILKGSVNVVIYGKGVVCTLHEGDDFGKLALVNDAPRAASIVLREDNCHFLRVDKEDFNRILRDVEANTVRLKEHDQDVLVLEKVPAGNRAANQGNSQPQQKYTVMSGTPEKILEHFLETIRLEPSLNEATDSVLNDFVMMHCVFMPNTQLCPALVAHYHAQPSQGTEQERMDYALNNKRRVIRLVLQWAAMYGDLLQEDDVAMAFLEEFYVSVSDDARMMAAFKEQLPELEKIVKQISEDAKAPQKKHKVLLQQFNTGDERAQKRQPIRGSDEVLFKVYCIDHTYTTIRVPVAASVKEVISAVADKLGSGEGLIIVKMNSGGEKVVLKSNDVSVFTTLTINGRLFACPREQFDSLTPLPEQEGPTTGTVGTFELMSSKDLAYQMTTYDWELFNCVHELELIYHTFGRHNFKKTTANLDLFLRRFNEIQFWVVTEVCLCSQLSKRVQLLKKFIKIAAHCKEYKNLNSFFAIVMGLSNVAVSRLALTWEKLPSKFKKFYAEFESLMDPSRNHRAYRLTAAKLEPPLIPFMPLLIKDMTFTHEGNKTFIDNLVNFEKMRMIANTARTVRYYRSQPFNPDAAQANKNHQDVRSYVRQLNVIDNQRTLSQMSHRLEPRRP

[2] = target: T2, Rap guanine nucleotide exchange factor 3 (Homo sapiens, UniProt O95398); test: Antagonist activity at recombinant human full length EPAC1 assessed as inhibition of EPAC1-mediated Rap1B (1 to 167 residues)-BODIPY GDP nucleotide exchange activity in presence of 20 uM cAMP
T2 sequence (O95398 whole entry): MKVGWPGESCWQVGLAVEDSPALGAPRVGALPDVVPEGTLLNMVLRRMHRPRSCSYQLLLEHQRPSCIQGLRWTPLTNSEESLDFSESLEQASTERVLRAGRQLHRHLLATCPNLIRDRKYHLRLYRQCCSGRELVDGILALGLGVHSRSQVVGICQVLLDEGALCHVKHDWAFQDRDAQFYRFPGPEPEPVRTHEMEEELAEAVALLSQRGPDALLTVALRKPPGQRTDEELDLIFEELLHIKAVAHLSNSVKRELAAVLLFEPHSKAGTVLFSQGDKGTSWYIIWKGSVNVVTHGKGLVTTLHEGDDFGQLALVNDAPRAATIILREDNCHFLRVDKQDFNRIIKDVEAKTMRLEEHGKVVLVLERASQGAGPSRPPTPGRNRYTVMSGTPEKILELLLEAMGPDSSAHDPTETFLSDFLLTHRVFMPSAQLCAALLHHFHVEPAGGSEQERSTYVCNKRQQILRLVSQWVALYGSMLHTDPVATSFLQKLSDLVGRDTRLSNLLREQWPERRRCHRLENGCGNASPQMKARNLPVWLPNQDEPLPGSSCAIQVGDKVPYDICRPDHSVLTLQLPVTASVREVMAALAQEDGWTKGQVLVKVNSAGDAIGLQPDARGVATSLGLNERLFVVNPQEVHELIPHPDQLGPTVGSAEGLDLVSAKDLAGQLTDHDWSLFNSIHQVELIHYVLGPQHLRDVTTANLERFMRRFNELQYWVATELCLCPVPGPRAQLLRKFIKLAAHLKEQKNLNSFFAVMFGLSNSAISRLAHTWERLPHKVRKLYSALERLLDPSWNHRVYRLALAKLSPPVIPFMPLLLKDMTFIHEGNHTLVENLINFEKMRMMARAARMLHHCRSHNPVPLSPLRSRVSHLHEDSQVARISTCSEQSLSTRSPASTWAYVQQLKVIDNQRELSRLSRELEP

[3] = Ratio of IC50 for recombinant human full length EPAC1 to IC50 for mouse EPAC2

Row | SMILES | IC50 [1] | IC50 [2] | Ratio IC50 [3]
1 | N#C/C(=N\Nc1ccc(Cl)c(C(F)(F)F)c1)C(=O)c1cc(-c2ccccc2)on1 | 2300 nM |  | 
2 | N#C/C(=N\Nc1cc(C(F)(F)F)cc(C(F)(F)F)c1)C(=O)c1noc2ccccc12 |  | 6.7 µM | 
3 | COc1ccc(-c2cc(C(=O)/C(C#N)=N/Nc3cc(C(F)(F)F)cc(C(F)(F)F)c3)no2)cc1 | 7000 nM | 5.6 µM | 
4 | CC(C)(C)c1ccc(-c2cc(C(=O)/C(C#N)=N/Nc3cc(C(F)(F)F)cc(C(F)(F)F)c3)no2)cc1 |  | 11.9 µM | 
5 | CC(C)(C)c1ccc(-c2cc(C(=O)/C(C#N)=N/Nc3ccc(C(F)(F)F)c(Cl)c3)no2)cc1 |  | 9 µM | 
6 | N#C/C(=N\Nc1cc(Cl)cc(C(F)(F)F)c1)C(=O)c1cc(-c2ccccc2)on1 |  | 9.5 µM | 
7 | CC(C)(C)c1ccc(-c2cc(C(=O)/C(C#N)=N/Nc3cccc(Cl)c3)no2)cc1 |  | 8.6 µM | 
8 | CC(C)(C)c1ccc(-c2cc(C(=O)/C(C#N)=N/Nc3ccc(Cl)c(C(F)(F)F)c3)no2)cc1 | 2200 nM | 7.3 µM | 
9 | N#C/C(=N\Nc1cc(Cl)cc(C(F)(F)F)c1)C(=O)c1cc(-c2ccco2)on1 | 2200 nM | 3.6 µM | 
10 | CC(C)(C)c1cc(C(=O)/C(C#N)=N/Nc2cccc(Cl)c2)no1 | 4400 nM |  | 2.5
11 | N#C/C(=N\Nc1ccc(Cl)c(C(F)(F)F)c1)C(=O)c1cc(-c2ccco2)on1 | 2300 nM | 4.2 µM | 
12 | N#C/C(=N\Nc1cc(C(F)(F)F)cc(C(F)(F)F)c1)C(=O)c1cc(-c2ccccc2)on1 | 3300 nM | 7.2 µM | 
13 | CC(C)(C)c1cc(C(=O)/C(C#N)=N/Nc2cc(Cl)c(Cl)c(Cl)c2)no1 |  | 2.7 µM | 
14 | N#C/C(=N\Nc1ccc(Cl)c(C(F)(F)F)c1)C(=O)c1cc(-c2ccc(Cl)cc2)on1 |  | 7.8 µM | 
15 | N#C/C(=N\Nc1ccc(Cl)c(C(F)(F)F)c1)C(=O)c1noc2ccccc12 | 1900 nM | 2.7 µM | 
16 | N#C/C(=N\Nc1cccc(Cl)c1)C(=O)c1cc(-c2ccco2)on1 |  | 9.9 µM | 
17 | N#C/C(=N\Nc1ccc(C(F)(F)F)c(Cl)c1)C(=O)c1noc2ccccc12 | 2200 nM | 3 µM | 
18 | N#C/C(=N\Nc1cccc(Cl)c1)C(=O)c1cc(-c2ccccc2)on1 |  | > 150 µM | 
19 | N#C/C(=N\Nc1cc(Cl)cc(C(F)(F)F)c1)C(=O)c1noc2ccccc12 | 2200 nM | 4.6 µM | 
20 | COc1ccc(-c2cc(C(=O)/C(C#N)=N/Nc3ccc(Cl)c(C(F)(F)F)c3)no2)cc1 | 4500 nM |  | 
21 | N#C/C(=N\Nc1ccc(F)c(Cl)c1)C(=O)c1noc2ccccc12 |  | 8.5 µM | 
22 | N#C/C(=N\Nc1cc(F)cc(Cl)c1)C(=O)c1noc2ccccc12 |  | 18.9 µM | 
23 | COc1ccc(-c2cc(C(=O)/C(C#N)=N/Nc3cccc(Cl)c3)no2)cc1 |  | 11.4 µM | 
24 | N#C/C(=N\Nc1cccc(Cl)c1)C(=O)c1noc2ccccc12 |  | 13.2 µM | 
